Experiment [1] deals with T1, Macrophage metalloelastase (Homo sapiens, UniProt P39900). As to the kind of experiment: Inhibition of recombinant human MMP-12 by ELISA. Background: ELISA stands for enzyme-linked immunosorbent assay.
Experiment [2] has as its target T2, Interstitial collagenase (Homo sapiens, UniProt P03956).
T2 sequence (P03956 whole entry): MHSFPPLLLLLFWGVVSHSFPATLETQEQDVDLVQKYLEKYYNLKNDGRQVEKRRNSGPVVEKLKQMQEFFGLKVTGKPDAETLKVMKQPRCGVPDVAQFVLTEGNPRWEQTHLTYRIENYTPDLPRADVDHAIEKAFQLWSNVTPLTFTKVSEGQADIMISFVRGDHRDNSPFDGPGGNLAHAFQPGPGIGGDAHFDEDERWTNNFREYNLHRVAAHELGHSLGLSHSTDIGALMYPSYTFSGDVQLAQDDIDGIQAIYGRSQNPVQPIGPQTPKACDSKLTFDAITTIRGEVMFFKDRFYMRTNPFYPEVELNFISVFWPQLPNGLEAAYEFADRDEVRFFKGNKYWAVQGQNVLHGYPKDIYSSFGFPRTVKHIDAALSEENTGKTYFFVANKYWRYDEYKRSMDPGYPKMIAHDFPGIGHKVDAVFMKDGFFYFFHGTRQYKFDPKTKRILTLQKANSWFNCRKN
Nature of the experiment: Inhibition of MMP-1 (unknown origin) expressed in Escherichia coli BL21(DE3) and measured for 2 mins by enzymatic assay.

A further experiment addresses T3, Matrilysin (Homo sapiens, UniProt P09237).
T3 sequence (P09237 whole entry): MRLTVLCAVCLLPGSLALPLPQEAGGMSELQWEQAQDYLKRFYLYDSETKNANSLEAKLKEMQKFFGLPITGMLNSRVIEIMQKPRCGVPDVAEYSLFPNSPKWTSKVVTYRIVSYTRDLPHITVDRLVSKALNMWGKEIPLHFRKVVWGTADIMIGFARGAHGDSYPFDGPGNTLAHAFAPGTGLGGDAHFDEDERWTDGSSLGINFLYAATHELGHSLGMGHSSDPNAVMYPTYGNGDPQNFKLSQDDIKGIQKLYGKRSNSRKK
Nature of the experiment: Inhibition of human MMP-7 expressed in Escherichia coli BL21(DE3) using Mca-Pro-Leu-Gly-Leu-Dpa-Ala-Arg-NH2 as substrate preincubated for 30 mins followed by susbstrate addition by photon-counter spectrophotometer analysis.

Another experiment addresses Collagenase 3 (Homo sapiens, UniProt P45452). As to the kind of experiment: Inhibition of human MMP-13 expressed in Escherichia coli BL21(DE3) using Mca-Pro-Leu-Gly-Leu-Dpa-Ala-Arg-NH2 as substrate preincubated for 30 mins followed by susbstrate addition by photon-counter spectrophotometer analysis.
Experiment [3] has as its target T4, 72 kDa type IV collagenase (Homo sapiens, UniProt P08253). As to the kind of experiment: Inhibition of human MMP-2 expressed in Escherichia coli BL21(DE3) using Mca-Pro-Leu-Gly-Leu-Dpa-Ala-Arg-NH2 as substrate preincubated for 30 mins followed by susbstrate addition by photon-counter spectrophotometer analysis.
Experiment [4] concerns the target T1, Macrophage metalloelastase. As to the kind of experiment: Inhibition of human MMP-12 expressed in Escherichia coli BL21(DE3) using Mca-Pro-Leu-Gly-Leu-Dpa-Ala-Arg-NH2 as substrate preincubated for 30 mins followed by susbstrate addition by photon-counter spectrophotometer analysis.
The target of experiment [5] is Matrix metalloproteinase-9 (Homo sapiens, UniProt P14780). Nature of the experiment: Inhibition of human MMP-9 expressed in Escherichia coli BL21(DE3) using Mca-Pro-Leu-Gly-Leu-Dpa-Ala-Arg-NH2 as substrate preincubated for 30 mins followed by susbstrate addition by photon-counter spectrophotometer analysis.
Chain of Matrix metalloproteinase-9 (P14780 whole entry): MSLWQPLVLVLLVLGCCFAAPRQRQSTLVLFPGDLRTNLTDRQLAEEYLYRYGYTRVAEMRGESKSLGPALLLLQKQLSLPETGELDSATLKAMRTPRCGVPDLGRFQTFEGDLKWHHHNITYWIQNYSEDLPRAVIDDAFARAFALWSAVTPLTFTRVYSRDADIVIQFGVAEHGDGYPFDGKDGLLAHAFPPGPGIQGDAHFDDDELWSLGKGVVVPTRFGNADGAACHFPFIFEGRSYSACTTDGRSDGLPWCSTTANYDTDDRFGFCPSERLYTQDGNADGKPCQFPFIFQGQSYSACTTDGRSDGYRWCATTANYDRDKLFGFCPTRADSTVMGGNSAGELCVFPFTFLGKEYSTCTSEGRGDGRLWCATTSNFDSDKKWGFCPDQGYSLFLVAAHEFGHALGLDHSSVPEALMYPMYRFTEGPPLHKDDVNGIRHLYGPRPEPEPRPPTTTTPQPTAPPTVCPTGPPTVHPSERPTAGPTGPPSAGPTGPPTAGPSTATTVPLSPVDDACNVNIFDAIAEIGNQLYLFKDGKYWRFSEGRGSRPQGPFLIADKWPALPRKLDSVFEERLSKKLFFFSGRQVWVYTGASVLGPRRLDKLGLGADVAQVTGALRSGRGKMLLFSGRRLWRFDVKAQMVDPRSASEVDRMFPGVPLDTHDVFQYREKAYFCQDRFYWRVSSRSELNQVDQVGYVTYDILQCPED
In experiment [6] the target is T5, Neutrophil collagenase (Homo sapiens, UniProt P22894). As to the kind of experiment: Inhibition of human MMP-8 expressed in Escherichia coli BL21(DE3) using Mca-Pro-Leu-Gly-Leu-Dpa-Ala-Arg-NH2 as substrate preincubated for 30 mins followed by susbstrate addition by photon-counter spectrophotometer analysis.
T5 sequence (P22894 whole entry): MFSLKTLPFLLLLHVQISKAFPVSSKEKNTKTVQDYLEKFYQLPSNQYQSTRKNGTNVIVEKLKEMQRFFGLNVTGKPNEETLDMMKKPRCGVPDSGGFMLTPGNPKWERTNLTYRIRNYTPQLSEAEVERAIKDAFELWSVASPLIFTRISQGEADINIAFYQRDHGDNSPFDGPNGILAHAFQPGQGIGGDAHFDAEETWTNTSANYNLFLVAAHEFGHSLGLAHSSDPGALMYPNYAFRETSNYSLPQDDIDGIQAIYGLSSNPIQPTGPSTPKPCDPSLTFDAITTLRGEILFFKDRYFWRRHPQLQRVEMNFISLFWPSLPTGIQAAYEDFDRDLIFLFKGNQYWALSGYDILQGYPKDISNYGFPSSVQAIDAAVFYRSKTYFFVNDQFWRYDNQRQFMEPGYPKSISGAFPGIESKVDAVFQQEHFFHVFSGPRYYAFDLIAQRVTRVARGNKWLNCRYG
A further experiment has as its target Stromelysin-2 (Homo sapiens, UniProt P09238). As to the kind of experiment: Inhibition of human MMP-10 expressed in Escherichia coli BL21(DE3) using Mca-Pro-Leu-Gly-Leu-Dpa-Ala-Arg-NH2 as substrate preincubated for 30 mins followed by susbstrate addition by photon-counter spectrophotometer analysis.
Experiment [7] addresses T2, Interstitial collagenase. Nature of the experiment: Inhibition of human MMP-1 expressed in Escherichia coli BL21(DE3) using Mca-Pro-Leu-Gly-Leu-Dpa-Ala-Arg-NH2 as substrate preincubated for 30 mins followed by susbstrate addition by photon-counter spectrophotometer analysis.
The target of the next experiment is Stromelysin-1 (Homo sapiens, UniProt P08254). As to the kind of experiment: Inhibition of human MMP-3 expressed in Escherichia coli BL21(DE3) using Mca-Pro-Leu-Gly-Leu-Dpa-Ala-Arg-NH2 as substrate preincubated for 30 mins followed by susbstrate addition by photon-counter spectrophotometer analysis.
Chain of Stromelysin-1 (P08254 whole entry): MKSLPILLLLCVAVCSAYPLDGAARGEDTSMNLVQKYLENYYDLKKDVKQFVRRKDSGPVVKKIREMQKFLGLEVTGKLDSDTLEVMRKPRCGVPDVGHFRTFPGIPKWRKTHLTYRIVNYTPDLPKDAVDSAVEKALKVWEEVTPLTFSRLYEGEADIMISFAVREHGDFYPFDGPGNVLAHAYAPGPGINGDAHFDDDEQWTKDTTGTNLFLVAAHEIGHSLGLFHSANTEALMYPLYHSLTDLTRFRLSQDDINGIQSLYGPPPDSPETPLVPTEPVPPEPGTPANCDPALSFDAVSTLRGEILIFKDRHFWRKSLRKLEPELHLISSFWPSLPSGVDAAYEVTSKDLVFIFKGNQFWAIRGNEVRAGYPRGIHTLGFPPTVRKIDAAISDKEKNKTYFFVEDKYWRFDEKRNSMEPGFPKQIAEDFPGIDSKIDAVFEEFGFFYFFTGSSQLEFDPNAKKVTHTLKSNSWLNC
In experiment [8] the target is T6, Matrix metalloproteinase-14 (Homo sapiens, UniProt P50281). Nature of the experiment: Inhibition of human MMP-14 expressed in Escherichia coli BL21(DE3) using Mca-Pro-Leu-Gly-Leu-Dpa-Ala-Arg-NH2 as substrate preincubated for 30 mins followed by susbstrate addition by photon-counter spectrophotometer analysis.
Experiment [9] has as its target T2, Interstitial collagenase. Nature of the experiment: Inhibition of human MMP-1 using Mca-Pro-Leu-Gly-Leu-Dpa-Ala-Arg-NH2 as substrate preincubated for 1 hr followed by susbstrate addition by fluorescent analysis.
Experiment [10] concerns the target T5, Neutrophil collagenase. As to the kind of experiment: Inhibition of human MMP-8 using Mca-Pro-Leu-Gly-Leu-Dpa-Ala-Arg-NH2 as substrate preincubated for 1 hr followed by susbstrate addition by fluorescent analysis.
In experiment [11] the target is T6, Matrix metalloproteinase-14. Nature of the experiment: Inhibition of human MMP-14 using Mca-Pro-Leu-Gly-Leu-Dpa-Ala-Arg-NH2 as substrate preincubated for 1 hr followed by susbstrate addition by fluorescent analysis.
The target of experiment [12] is T4, 72 kDa type IV collagenase. As to the kind of experiment: Inhibition of human MMP-2 using Mca-Pro-Leu-Gly-Leu-Dpa-Ala-Arg-NH2 as substrate preincubated for 1 hr followed by susbstrate addition by fluorescent analysis.
Experiment [13] concerns the target T5, Neutrophil collagenase. As to the kind of experiment: Inhibition of recombinant human MMP-8 for 3 hrs using colorimetric substrate by ELISA.
The target of experiment [14] is T2, Interstitial collagenase. As to the kind of experiment: Inhibition of recombinant human MMP-1 for 3 hrs using colorimetric substrate by ELISA.
The target in experiment [15] is T4, 72 kDa type IV collagenase. As to the kind of experiment: Inhibition of recombinant human MMP-2 for 3 hrs using colorimetric substrate by ELISA.

From ChEMBL document CHEMBL5113513, “Selective Inhibitors of Medium-Size S1' Pocket Matrix Metalloproteinases: A Stepping Stone of Future Drug Discovery” (J Med Chem, 2022) come the findings set out here.

SMILES strings stand for the structures.

T4 sequence (P08253 whole entry): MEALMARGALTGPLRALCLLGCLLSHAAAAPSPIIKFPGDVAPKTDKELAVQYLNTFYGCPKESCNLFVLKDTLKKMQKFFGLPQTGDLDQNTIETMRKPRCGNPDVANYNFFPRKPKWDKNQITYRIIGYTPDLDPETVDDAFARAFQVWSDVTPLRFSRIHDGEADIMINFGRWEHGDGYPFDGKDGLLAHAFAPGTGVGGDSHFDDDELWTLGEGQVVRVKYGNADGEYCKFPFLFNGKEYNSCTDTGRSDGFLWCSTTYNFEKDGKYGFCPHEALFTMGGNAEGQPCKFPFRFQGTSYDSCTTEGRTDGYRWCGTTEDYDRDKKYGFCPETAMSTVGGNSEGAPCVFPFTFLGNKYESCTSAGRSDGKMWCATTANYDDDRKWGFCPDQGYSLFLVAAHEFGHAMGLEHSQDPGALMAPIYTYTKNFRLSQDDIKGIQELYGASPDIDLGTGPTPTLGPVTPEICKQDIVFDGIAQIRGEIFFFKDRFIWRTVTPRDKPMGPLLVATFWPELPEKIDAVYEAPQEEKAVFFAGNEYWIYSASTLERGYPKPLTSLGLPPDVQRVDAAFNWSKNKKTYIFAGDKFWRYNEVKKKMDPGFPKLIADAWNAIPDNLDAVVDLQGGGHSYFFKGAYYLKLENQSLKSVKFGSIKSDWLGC
T1 sequence (P39900 whole entry): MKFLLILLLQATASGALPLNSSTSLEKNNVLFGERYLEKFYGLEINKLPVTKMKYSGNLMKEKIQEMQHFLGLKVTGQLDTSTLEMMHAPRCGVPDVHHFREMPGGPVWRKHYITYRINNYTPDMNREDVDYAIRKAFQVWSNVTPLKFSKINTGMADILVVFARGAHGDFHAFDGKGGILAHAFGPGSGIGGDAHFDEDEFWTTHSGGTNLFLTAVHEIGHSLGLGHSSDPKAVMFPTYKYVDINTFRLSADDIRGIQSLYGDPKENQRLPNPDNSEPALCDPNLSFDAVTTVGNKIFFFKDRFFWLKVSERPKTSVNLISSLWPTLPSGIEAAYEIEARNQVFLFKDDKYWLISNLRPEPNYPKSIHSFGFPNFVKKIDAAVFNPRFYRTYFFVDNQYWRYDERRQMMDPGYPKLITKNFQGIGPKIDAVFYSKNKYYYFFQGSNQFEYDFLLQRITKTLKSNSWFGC
Chain of Stromelysin-2 (P09238 whole entry): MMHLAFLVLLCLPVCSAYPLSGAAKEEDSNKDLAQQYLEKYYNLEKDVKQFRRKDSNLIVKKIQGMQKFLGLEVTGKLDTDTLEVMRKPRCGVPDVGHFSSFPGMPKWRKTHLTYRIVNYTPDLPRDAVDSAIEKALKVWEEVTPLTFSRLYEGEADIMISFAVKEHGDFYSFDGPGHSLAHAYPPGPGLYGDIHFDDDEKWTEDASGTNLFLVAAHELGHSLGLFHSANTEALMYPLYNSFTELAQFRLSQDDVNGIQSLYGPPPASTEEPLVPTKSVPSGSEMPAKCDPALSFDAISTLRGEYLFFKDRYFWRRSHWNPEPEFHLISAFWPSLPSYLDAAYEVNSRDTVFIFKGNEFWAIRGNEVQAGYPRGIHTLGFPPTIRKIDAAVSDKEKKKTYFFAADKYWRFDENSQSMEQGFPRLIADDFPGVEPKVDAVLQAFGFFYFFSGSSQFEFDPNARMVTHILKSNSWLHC

By IC50 is commonly meant the midpoint of a concentration-inhibition curve. For `CC(C)CC(C(=O)NC(c1noc(Sc2ccccc2)n1)C(C)(C)C)C(O)C(=O)NO` (centres undefined), in experiment [1], the IC50 came to 20 nM.

At Interstitial collagenase [2], `O=C(NO)C1c2ccc(O)cc2CCN1S(=O)(=O)c1cc(Cl)ccc1Cl` (centres undefined) came in with an IC50 of 50000 nM.

As a reminder, the Ki is the equilibrium dissociation constant of an inhibitor or competing ligand from its target. Take `NC(=O)[C@@H](CCC(=O)O)NC(=O)[C@@H](CCC(=O)O)NC(=O)[C@@H](Cc1cc(-c2ccc(-c3cccc(Cl)c3)cc2)no1)CP(=O)(O)c1ccc(Br)cc1`: the Ki at Matrilysin was 626 nM; at Collagenase 3, 49 nM; in [3], 192 nM; in experiment [4], 0.19 nM; in experiment [5], 1260 nM; at Neutrophil collagenase [6], 271 nM. Besides, the Ki at Stromelysin-2 was found to be 18400 nM; at Interstitial collagenase [7] it was 67000 nM; on Stromelysin-1, 40 nM; in [8], 140 nM.

Regarding `Cc1cc(=O)c(O)c(C(=O)NCc2ccc(-c3ccc(-c4ccccc4)cc3)cc2)o1`, the half-maximal inhibitory concentration (IC50) is above 50000 nM on Interstitial collagenase [9], above 2000 nM on Neutrophil collagenase [10], above 2000 nM in [11] and above 2000 nM in experiment [12].

As for `CC(C)CNC(=O)P(=O)(O)O`, the 50% inhibitory concentration (IC50) was 1000 nM on Neutrophil collagenase [13], 40000 nM on Interstitial collagenase [14] and above 100000 nM in experiment [15].
